≈ marks a conversion by molar mass, not a printed value. Calls of active or inactive are those of the source. The rule behind the calls is not given here.
Key:
Mucor hiemalis [1] = test: Antimicrobial activity against Mucor hiemalis DSM 2656 by serial dilution method; format: functional
Aspergillus clavatus [2] = test: Antimicrobial activity against Aspergillus clavatus DSM 816 by serial dilution method; format: functional
Eremothecium coryli [3] = test: Antimicrobial activity against Nematospora coryli DSM 6981 by serial dilution method; format: functional
Wickerhamomyces anomalus [4] = test: Antimicrobial activity against Pichia anomala DSM 6766 by serial dilution method; format: functional, organism-based
Amorphotheca resinae [5] = test: Antimicrobial activity against Hormoconis resinae DSM 1203 by serial dilution method; format: functional, organism-based
Rhodotorula glutinis [6] = test: Antimicrobial activity against Rhodotorula glutinis DSM 10134 by serial dilution method; format: functional
Debaryomyces hansenii [7] = test: Antimicrobial activity against Debaryomyces hansenii DSM 3428 by serial dilution method; format: functional
[8] = tested on: Schizosaccharomyces pombe; test: Antimicrobial activity against Schizosaccharomyces pombe DSM 70572 by serial dilution method; format: functional
Candida albicans [9] = test: Antimicrobial activity against Candida albicans DSM 1665 by serial dilution method; format: functional
Penicillium capsulatum [10] = test: Antimicrobial activity against Penicillium capsulatum DSM 2210 by serial dilution method; format: functional
Pichia membranifaciens [11] = test: Antimicrobial activity against Pichia membranifaciens DSM 21959 by serial dilution method; format: functional, organism-based
Trichosporon oleaginosus [12] = test: Antimicrobial activity against Trichosporon oleaginosus DSM 11815 by serial dilution method; format: functional; settings: Cutaneotrichosporon oleaginosum
Saccharomyces cerevisiae [13] = test: Antimicrobial activity against Saccharomyces cerevisiae BTc-3A by serial dilution method; format: functional, organism-based
Penicillium capsulatum [14] = test: Antimicrobial activity against Penicillium capsulatum DSM 2210 at 6.7 to 67 ug/ml by serial dilution method; format: functional
Pimelobacter simplex [15] = test: Antimicrobial activity against Nocardioides simplex DSM 20130 at 6.7 to 67 ug/ml by serial dilution method; format: functional
[16] = tested on: Chromobacterium violaceum; test: Antimicrobial activity against Chromobacterium violaceum DSM 30191 at 6.7 to 67 ug/ml by serial dilution method; format: functional, organism-based
Candida albicans [17] = test: Antimicrobial activity against Candida albicans DSM 1665 at 6.7 to 67 ug/ml by serial dilution method; format: functional, organism-based
Amorphotheca resinae [18] = test: Antimicrobial activity against Hormoconis resinae DSM 1203 at 6.7 to 67 ug/ml by serial dilution method; format: functional, organism-based
Pichia membranifaciens [19] = test: Antimicrobial activity against Pichia membranifaciens DSM 21959 at 6.7 to 67 ug/ml by serial dilution method; format: functional, organism-based
Pseudomonas aeruginosa [20] = test: Antimicrobial activity against Pseudomonas aeruginosa DSM 50071 at 6.7 to 67 ug/ml by serial dilution method; format: functional, organism-based
Debaryomyces hansenii [21] = test: Antimicrobial activity against Debaryomyces hansenii DSM 3428 at 6.7 to 67 ug/ml by serial dilution method; format: functional, organism-based
[22] = tested on: Schizosaccharomyces pombe; test: Antimicrobial activity against Schizosaccharomyces pombe DSM 70572 at 6.7 to 67 ug/ml by serial dilution method; format: functional, organism-based
Wickerhamomyces anomalus [23] = test: Antimicrobial activity against Pichia anomala DSM 6766 at 6.7 to 67 ug/ml by serial dilution method; format: functional, organism-based
Paenibacillus polymyxa [24] = test: Antimicrobial activity against Paenibacillus polymyxa DSM 36 at 6.7 to 67 ug/ml by serial dilution method; format: functional
Micrococcus luteus [25] = test: Antimicrobial activity against Micrococcus luteus DSM 20030 at 6.7 to 67 ug/ml by serial dilution method; format: functional, organism-based
Saccharomyces cerevisiae [26] = test: Antimicrobial activity against Saccharomyces cerevisiae BTc-3A at 6.7 to 67 ug/ml by serial dilution method; format: functional, organism-based
[27] = tested on: Mycolicibacterium diernhoferi; test: Antimicrobial activity against Mycobacterium diernhoferi DSM 43524 at 6.7 to 67 ug/ml by serial dilution method; format: functional, organism-based
Staphylococcus aureus [28] = test: Antimicrobial activity against Staphylococcus aureus DSM 346 at 6.7 to 67 ug/ml by serial dilution method; format: functional, organism-based
Nocardia sp. [29] = test: Antimicrobial activity against Nocardia sp. DSM 43069 at 6.7 to 67 ug/ml by serial dilution method; format: functional, organism-based
[30] = Cytotoxicity against mouse L929 cells after 5 days; format: cell-based; settings: read-out: LC50
Escherichia coli [31] = test: Antimicrobial activity against Escherichia coli DSM 1116 at 6.7 to 67 ug/ml by serial dilution method; format: functional, organism-based
Paenibacillus polymyxa [32] = test: Antimicrobial activity against Paenibacillus polymyxa DSM 36 by serial dilution method; format: functional
Escherichia coli [33] = test: Antimicrobial activity against Escherichia coli DSM 1116 by serial dilution method; format: functional
Bacillus subtilis [34] = test: Antimicrobial activity against Bacillus subtilis DSM 10 by serial dilution method; format: functional
Micrococcus luteus [35] = test: Antimicrobial activity against Micrococcus luteus DSM 20030 by serial dilution method; format: functional
[36] = tested on: Chromobacterium violaceum; test: Antimicrobial activity against Chromobacterium violaceum DSM 30191 by serial dilution method; format: functional
[37] = tested on: Mycolicibacterium diernhoferi; test: Antimicrobial activity against Mycobacterium diernhoferi DSM 43524 by serial dilution method; format: functional
Nocardia sp. [38] = test: Antimicrobial activity against Nocardia sp. DSM 43069 by serial dilution method; format: functional
Staphylococcus aureus [39] = test: Antimicrobial activity against Staphylococcus aureus DSM 346 by serial dilution method; format: functional
Pimelobacter simplex [40] = test: Antimicrobial activity against Nocardioides simplex DSM 20130 by serial dilution method; format: functional
Pseudomonas aeruginosa [41] = test: Antimicrobial activity against Pseudomonas aeruginosa DSM 50071 by serial dilution method; format: functional, organism-based
Eremothecium coryli [42] = test: Antimicrobial activity against Nematospora coryli DSM 6981 at 6.7 to 67 ug/ml by serial dilution method; format: functional, organism-based
Mucor hiemalis [43] = test: Antimicrobial activity against Mucor hiemalis DSM 2656 at 6.7 to 67 ug/ml by serial dilution method; format: functional, organism-based
Bacillus subtilis [44] = test: Antimicrobial activity against Bacillus subtilis DSM 10 at 6.7 to 67 ug/ml by serial dilution method; format: functional, organism-based
Rhodotorula glutinis [45] = test: Antimicrobial activity against Rhodotorula glutinis DSM 10134 at 6.7 to 67 ug/ml by serial dilution method; format: functional, organism-based
Aspergillus clavatus [46] = test: Antimicrobial activity against Aspergillus clavatus DSM 816 at 6.7 to 67 ug/ml by serial dilution method; format: functional, organism-based
Trichosporon oleaginosus [47] = test: Antimicrobial activity against Trichosporon oleaginosus DSM 11815 at 6.7 to 67 ug/ml by serial dilution method; format: functional; settings: Cutaneotrichosporon oleaginosum

Compound | MIC (Mucor hiemalis [1]) | MIC (Aspergillus clavatus [2]) | MIC (Rhodotorula glutinis [6]) | MIC (Debaryomyces hansenii [7]) | MIC (Trichosporon oleaginosus [12]) | inhibition (Penicillium capsulatum [14]) | inhibition [16] | inhibition (Candida albicans [17]) | inhibition (Amorphotheca resinae [18]) | inhibition (Pichia membranifaciens [19]) | inhibition (Pseudomonas aeruginosa [20]) | inhibition [22] | inhibition (Wickerhamomyces anomalus [23]) | inhibition (Paenibacillus polymyxa [24]) | inhibition (Micrococcus luteus [25]) | inhibition (Saccharomyces cerevisiae [26]) | inhibition [27] | inhibition (Staphylococcus aureus [28]) | CC50 at 120 h [30] | inhibition (Escherichia coli [31]) | other results
NYSTATIN | 2.1 µg/mL | 2.1 µg/mL | 0.52 µg/mL | 6.7 µg/mL | 1 µg/mL |  |  |  |  |  |  |  |  |  |  |  |  |  |  |  | MIC (Eremothecium coryli [3]): 4.2 µg/mL; MIC (Wickerhamomyces anomalus [4]): 4.2 µg/mL; MIC (Amorphotheca resinae [5]): < 0.25 µg/mL; MIC [8]: 33.3 µg/mL; MIC (Candida albicans [9]): 4.2 µg/mL; MIC (Penicillium capsulatum [10]): 16.6 µg/mL; MIC (Pichia membranifaciens [11]): 0.83 µg/mL; MIC (Saccharomyces cerevisiae [13]): 1.7 µg/mL
O=C(c1nccs1)c1c[nH]c2ccccc12 | 33.3 µg/mL (≈ 146 µM) | 33.3 µg/mL (≈ 146 µM) | 67 µg/mL (≈ 294 µM) |  | 67 µg/mL (≈ 294 µM) | inactive | inactive | inactive | inactive | inactive | inactive | inactive | inactive | inactive | inactive | inactive | inactive | inactive | > 10 µg/mL | inactive | inhibition (Pimelobacter simplex [15]): inactive; MIC (Eremothecium coryli [3]): 33.3 µg/mL (≈ 146 µM); inhibition (Debaryomyces hansenii [21]): inactive; inhibition (Nocardia sp. [29]): inactive
CN(C)[C@@H]1C(O)=C(C(N)=O)C(=O)[C@@]2(O)C(O)=C3C(=O)c4c(O)cccc4[C@@](C)(O)[C@H]3[C@H](O)[C@@H]12.Cl [OXYTETRACYCLINE HYDROCHLORIDE] |  |  |  |  |  |  |  |  |  |  |  |  |  |  |  |  |  |  |  |  | MIC (Paenibacillus polymyxa [32]): 8.3 µg/mL; MIC (Escherichia coli [33]): 1 µg/mL; MIC (Bacillus subtilis [34]): 8.3 µg/mL; MIC (Micrococcus luteus [35]): 3.3 µg/mL; MIC [36]: 1 µg/mL; MIC [37]: < 0.25 µg/mL; MIC (Nocardia sp. [38]): 8.3 µg/mL; MIC (Staphylococcus aureus [39]): 0.21 µg/mL; MIC (Pimelobacter simplex [40]): 16.6 µg/mL
GENTAMICIN |  |  |  |  |  |  |  |  |  |  |  |  |  |  |  |  |  |  |  |  | MIC (Pseudomonas aeruginosa [41]): 67 µg/mL
C=C(C)/C=C/c1ccc2[nH]cc(C/C=N\O)c2c1 | 67 µg/mL (≈ 279 µM) | 67 µg/mL (≈ 279 µM) | 67 µg/mL (≈ 279 µM) | 67 µg/mL (≈ 279 µM) | 67 µg/mL (≈ 279 µM) | inactive | inactive | inactive | inactive | inactive | inactive |  | inactive | inactive | inactive | inactive | inactive | inactive | 6.8 µg/mL (≈ 28.3 µM) | inactive | MIC [8]: 67 µg/mL (≈ 279 µM); inhibition (Eremothecium coryli [42]): inactive; MIC (Nocardia sp. [38]): 33.3 µg/mL (≈ 139 µM); MIC (Pimelobacter simplex [40]): 33.3 µg/mL (≈ 139 µM)
C=C(C)/C=C/c1ccc2[nH]cc(C/C=N/O)c2c1 | 67 µg/mL (≈ 279 µM) | 67 µg/mL (≈ 279 µM) | 67 µg/mL (≈ 279 µM) | 67 µg/mL (≈ 279 µM) | 67 µg/mL (≈ 279 µM) | inactive | inactive | inactive | inactive | inactive | inactive |  | inactive | inactive | inactive | inactive | inactive | inactive | 6.8 µg/mL (≈ 28.3 µM) | inactive | MIC [8]: 67 µg/mL (≈ 279 µM); inhibition (Eremothecium coryli [42]): inactive; MIC (Nocardia sp. [38]): 33.3 µg/mL (≈ 139 µM); MIC (Pimelobacter simplex [40]): 33.3 µg/mL (≈ 139 µM)
CC(=O)/C=C/c1ccc2[nH]cc(CCO)c2c1 |  |  |  |  |  |  | inactive | inactive |  |  | inactive | inactive | inactive |  | inactive |  |  | inactive |  | inactive | inhibition (Mucor hiemalis [43]): inactive; inhibition (Bacillus subtilis [44]): inactive; inhibition (Rhodotorula glutinis [45]): inactive
CC1=C(CCO)C(=O)c2ccccc2C1=O | 67 µg/mL (≈ 310 µM) |  | 67 µg/mL (≈ 310 µM) |  |  |  |  |  |  |  |  | inactive | inactive |  | inactive |  |  |  |  | inactive | MIC (Bacillus subtilis [34]): 33.3 µg/mL (≈ 154 µM); MIC (Candida albicans [9]): 67 µg/mL (≈ 310 µM); MIC [36]: 67 µg/mL (≈ 310 µM); MIC (Staphylococcus aureus [39]): 33.3 µg/mL (≈ 154 µM)
C=C(C)/C=C/c1ccc2[nH]cc(CCO)c2c1 |  |  |  |  |  | inactive | inactive | inactive | inactive | inactive | inactive | inactive | inactive | inactive | inactive | inactive | inactive | inactive | > 10 µg/mL | inactive | inhibition (Mucor hiemalis [43]): inactive; inhibition (Pimelobacter simplex [15]): inactive; inhibition (Aspergillus clavatus [46]): inactive; inhibition (Debaryomyces hansenii [21]): inactive; inhibition (Trichosporon oleaginosus [47]): inactive; inhibition (Eremothecium coryli [42]): inactive; inhibition (Nocardia sp. [29]): inactive; inhibition (Rhodotorula glutinis [45]): inactive
